For one assay, the target named is Acetylcholinesterase (Homo sapiens, UniProt P22303). It is filed as functional.
The target in assay [1] is Sodium-dependent serotonin transporter (Homo sapiens, UniProt P31645).
Assay [2] has as its target T1, Alpha-2A adrenergic receptor (Homo sapiens, UniProt P08913).
T1 sequence (P08913 whole entry): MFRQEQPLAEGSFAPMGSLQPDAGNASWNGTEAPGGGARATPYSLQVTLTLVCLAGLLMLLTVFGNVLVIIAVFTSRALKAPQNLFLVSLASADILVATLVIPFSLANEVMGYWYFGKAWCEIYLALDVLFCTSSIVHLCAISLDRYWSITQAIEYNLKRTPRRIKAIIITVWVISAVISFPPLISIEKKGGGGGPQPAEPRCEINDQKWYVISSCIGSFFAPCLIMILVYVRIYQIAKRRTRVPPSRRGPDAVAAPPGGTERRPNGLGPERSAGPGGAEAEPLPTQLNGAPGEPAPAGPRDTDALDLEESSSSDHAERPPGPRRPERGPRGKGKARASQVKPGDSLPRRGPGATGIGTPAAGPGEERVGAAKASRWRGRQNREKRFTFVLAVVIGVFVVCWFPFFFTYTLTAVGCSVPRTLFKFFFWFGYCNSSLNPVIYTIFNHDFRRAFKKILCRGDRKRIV

Assay [3] deals with Sodium-dependent noradrenaline transporter (Homo sapiens, UniProt P23975).
The target in assay [4] is T2, Muscarinic acetylcholine receptor M2 (Homo sapiens, UniProt P08172).
T2 sequence (P08172 whole entry): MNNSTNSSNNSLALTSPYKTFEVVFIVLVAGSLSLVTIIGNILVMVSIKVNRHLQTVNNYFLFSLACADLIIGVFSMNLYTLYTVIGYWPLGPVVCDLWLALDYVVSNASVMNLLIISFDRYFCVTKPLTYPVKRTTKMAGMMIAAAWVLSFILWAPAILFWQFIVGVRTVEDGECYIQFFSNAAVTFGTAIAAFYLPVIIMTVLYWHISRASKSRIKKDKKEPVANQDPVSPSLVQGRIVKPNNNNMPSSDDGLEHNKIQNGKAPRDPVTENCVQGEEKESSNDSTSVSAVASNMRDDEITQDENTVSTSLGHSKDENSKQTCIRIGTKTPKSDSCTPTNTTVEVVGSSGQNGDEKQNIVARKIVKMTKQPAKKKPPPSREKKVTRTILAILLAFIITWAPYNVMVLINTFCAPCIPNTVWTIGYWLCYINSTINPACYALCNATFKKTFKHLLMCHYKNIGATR

The target of a further assay is T3, Thromboxane A2 receptor (Homo sapiens, UniProt P21731).
T3 sequence (P21731 whole entry): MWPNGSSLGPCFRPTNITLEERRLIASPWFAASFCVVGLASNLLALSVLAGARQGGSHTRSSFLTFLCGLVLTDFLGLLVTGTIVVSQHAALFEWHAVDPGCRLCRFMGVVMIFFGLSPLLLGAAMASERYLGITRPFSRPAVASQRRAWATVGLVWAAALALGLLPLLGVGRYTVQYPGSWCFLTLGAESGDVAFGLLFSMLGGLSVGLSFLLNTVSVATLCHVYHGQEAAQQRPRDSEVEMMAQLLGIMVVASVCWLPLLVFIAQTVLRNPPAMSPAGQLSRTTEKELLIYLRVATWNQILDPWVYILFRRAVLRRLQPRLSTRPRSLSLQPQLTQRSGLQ
It is filed as functional, cell-based.

In assay [5] the target is Sodium-dependent dopamine transporter (Homo sapiens, UniProt Q01959).
A further assay concerns the target T4, Progesterone receptor (Homo sapiens, UniProt P06401).
T4 sequence (P06401 whole entry): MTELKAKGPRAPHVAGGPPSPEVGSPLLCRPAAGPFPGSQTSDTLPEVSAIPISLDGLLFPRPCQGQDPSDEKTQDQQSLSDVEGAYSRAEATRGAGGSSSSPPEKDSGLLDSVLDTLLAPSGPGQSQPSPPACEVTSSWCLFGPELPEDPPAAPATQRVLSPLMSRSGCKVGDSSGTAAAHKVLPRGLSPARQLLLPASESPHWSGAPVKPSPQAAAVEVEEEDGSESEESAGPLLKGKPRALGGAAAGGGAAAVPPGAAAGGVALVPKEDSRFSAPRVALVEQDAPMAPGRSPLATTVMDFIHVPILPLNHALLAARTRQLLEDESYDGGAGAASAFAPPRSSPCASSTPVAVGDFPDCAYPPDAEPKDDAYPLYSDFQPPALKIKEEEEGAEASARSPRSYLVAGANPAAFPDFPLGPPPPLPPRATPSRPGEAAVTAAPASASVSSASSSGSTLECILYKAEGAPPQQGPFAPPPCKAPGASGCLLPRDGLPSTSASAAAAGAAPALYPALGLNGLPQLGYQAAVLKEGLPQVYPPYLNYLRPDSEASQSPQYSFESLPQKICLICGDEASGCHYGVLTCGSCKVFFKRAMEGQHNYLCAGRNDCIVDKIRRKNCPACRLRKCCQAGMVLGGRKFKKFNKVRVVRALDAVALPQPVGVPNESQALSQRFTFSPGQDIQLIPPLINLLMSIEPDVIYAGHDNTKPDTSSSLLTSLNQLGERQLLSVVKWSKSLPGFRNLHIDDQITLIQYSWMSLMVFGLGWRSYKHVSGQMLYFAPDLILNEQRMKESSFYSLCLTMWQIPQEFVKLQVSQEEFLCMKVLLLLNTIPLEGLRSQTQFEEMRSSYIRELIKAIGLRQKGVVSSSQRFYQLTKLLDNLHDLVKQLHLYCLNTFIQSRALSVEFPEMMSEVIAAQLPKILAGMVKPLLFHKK

Assay [6] has as its target Prostaglandin G/H synthase 1 (Homo sapiens, UniProt P23219). Format: functional.
Assay [7] deals with cGMP-inhibited 3',5'-cyclic phosphodiesterase 3A (Homo sapiens, UniProt Q14432). Format: functional.
Assay [8] has as its target Voltage-gated inwardly rectifying potassium channel KCNH2 (Homo sapiens, UniProt Q12809). It is filed as functional. To be noted: read-out: AC50.

Each structure is given as a SMILES string.
Note: assay procedure not described here.

Prostaglandin G/H synthase 1, sequence (P23219 whole entry): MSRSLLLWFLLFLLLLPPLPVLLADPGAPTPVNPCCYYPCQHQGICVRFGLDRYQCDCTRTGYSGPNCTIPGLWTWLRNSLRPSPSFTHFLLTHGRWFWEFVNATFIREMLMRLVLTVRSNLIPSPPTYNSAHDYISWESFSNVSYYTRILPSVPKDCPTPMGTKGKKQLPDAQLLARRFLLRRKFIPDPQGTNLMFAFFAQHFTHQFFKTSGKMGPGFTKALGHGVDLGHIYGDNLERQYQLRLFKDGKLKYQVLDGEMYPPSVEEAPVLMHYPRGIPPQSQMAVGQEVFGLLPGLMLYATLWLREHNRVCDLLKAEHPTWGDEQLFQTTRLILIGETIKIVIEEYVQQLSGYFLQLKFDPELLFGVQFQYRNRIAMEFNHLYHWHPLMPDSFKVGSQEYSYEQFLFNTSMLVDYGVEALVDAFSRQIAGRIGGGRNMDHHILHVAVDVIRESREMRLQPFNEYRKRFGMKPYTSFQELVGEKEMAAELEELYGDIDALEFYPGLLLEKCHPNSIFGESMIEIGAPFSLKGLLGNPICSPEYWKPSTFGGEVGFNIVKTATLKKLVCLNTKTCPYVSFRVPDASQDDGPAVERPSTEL
Sodium-dependent serotonin transporter, sequence (P31645 whole entry): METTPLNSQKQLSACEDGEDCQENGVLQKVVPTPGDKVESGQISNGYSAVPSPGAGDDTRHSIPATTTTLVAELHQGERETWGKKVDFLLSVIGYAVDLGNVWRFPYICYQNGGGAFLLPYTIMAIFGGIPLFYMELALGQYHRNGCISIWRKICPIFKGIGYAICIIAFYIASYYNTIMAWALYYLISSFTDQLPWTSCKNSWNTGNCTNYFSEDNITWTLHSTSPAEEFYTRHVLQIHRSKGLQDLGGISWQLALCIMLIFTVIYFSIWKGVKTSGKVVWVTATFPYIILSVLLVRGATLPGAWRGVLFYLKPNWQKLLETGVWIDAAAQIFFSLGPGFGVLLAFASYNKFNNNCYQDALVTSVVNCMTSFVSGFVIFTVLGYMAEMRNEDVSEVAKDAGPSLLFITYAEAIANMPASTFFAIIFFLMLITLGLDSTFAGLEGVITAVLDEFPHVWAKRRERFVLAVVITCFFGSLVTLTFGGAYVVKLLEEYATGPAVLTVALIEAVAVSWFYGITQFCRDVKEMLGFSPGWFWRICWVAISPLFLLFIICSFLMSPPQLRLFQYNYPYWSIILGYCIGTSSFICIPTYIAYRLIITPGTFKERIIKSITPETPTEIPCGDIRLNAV
Sodium-dependent noradrenaline transporter, sequence (P23975 whole entry): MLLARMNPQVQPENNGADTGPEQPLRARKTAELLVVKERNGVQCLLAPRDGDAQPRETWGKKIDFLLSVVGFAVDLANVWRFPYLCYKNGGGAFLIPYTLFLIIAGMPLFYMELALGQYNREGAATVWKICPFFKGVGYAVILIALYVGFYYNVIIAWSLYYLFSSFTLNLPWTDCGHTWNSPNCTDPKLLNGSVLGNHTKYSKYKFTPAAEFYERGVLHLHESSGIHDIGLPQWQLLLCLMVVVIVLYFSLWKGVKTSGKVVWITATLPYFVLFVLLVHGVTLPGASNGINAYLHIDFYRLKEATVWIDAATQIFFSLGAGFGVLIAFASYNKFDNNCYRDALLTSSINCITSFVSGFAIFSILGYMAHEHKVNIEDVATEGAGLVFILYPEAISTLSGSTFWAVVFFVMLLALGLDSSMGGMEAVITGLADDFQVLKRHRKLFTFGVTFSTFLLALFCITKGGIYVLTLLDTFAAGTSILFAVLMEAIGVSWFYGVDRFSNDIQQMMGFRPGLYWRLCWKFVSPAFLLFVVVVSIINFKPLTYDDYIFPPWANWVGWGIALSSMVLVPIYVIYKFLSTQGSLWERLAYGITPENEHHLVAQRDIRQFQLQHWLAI
Sodium-dependent dopamine transporter, sequence (Q01959 whole entry): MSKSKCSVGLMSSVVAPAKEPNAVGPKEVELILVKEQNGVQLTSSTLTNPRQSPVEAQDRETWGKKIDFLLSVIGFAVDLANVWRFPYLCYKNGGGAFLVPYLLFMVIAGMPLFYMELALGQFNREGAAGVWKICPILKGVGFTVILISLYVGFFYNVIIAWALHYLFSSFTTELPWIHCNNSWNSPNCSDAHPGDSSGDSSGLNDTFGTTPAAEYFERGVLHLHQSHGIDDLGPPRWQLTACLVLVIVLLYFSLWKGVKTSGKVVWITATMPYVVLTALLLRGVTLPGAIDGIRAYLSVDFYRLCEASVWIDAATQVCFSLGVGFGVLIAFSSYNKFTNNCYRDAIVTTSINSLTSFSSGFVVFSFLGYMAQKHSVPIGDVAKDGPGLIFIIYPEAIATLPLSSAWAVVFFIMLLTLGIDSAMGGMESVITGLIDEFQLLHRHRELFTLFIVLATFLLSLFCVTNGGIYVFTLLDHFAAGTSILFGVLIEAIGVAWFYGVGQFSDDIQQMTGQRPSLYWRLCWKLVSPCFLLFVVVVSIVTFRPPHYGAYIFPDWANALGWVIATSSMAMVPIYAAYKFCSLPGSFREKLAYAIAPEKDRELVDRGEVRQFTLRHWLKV
Acetylcholinesterase, sequence (P22303 whole entry): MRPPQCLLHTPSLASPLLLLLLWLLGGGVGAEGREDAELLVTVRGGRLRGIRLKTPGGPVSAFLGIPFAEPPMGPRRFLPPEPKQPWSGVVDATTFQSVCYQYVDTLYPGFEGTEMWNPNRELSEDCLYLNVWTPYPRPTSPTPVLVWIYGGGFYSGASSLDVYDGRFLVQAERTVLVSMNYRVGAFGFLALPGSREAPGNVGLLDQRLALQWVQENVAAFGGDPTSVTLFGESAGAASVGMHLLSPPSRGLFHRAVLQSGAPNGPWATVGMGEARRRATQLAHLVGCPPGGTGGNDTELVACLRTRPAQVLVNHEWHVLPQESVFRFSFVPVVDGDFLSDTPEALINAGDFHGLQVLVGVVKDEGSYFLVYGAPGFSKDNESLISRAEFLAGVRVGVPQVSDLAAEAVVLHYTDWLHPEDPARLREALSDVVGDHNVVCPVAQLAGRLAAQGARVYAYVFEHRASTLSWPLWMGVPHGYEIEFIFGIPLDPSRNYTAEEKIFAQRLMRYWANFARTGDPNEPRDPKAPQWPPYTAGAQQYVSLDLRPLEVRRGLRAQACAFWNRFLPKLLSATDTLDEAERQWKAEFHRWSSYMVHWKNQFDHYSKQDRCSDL
Voltage-gated inwardly rectifying potassium channel KCNH2, sequence (Q12809 whole entry): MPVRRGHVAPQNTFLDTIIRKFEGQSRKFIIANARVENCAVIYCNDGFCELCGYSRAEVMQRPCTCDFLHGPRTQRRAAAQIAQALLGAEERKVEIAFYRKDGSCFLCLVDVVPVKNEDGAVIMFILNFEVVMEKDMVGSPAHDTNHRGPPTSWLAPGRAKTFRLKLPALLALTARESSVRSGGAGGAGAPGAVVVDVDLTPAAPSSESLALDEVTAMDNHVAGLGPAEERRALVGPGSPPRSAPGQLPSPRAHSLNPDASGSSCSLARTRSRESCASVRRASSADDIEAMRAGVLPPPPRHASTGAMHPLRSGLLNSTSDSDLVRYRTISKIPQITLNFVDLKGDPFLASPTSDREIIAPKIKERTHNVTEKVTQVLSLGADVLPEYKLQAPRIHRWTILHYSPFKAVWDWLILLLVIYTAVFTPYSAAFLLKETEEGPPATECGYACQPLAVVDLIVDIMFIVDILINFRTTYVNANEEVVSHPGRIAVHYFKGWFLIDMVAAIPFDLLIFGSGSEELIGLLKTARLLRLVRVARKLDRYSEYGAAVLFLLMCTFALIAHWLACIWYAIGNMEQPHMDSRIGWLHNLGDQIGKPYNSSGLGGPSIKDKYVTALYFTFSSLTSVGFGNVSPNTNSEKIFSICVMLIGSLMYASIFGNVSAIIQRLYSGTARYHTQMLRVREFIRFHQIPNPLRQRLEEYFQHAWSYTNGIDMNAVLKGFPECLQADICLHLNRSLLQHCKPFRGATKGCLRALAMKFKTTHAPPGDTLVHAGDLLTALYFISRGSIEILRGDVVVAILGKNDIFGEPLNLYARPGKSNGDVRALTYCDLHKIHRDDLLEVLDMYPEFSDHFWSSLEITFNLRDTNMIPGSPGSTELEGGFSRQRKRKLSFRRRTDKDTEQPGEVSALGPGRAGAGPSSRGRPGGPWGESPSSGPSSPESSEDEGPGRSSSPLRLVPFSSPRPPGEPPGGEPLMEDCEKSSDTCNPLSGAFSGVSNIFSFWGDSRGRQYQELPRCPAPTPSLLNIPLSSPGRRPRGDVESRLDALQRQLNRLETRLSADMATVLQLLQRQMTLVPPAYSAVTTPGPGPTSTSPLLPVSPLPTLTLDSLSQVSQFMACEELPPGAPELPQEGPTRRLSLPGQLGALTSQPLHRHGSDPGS

With `CCCCCCCC(=O)N[C@H](CN1CCCC1)[C@H](O)c1ccc2c(c1)OCCO2`, the AC50 (on Acetylcholinesterase; in assay [1]; in assay [2]; in assay [3]; in [4]; on Thromboxane A2 receptor) was greater than 30 µM throughout. For the same compound, the AC50 (usually the concentration at which the activity in the assay is half-maximal) was greater than 30 µM in [5], greater than 30 µM on Progesterone receptor, 26.5 µM in assay [6] and greater than 30 µM in assay [7].

For the compound `CC(=O)OCC[N+](C)(C)C` [ACETYLCHOLINE], the half-maximal activity concentration (AC50) (on Acetylcholinesterase; in assay [1]; in assay [8]; in assay [2]; in [3]; in assay [5]) was greater than 30 µM each time. For the same compound, the AC50 (on Progesterone receptor; in [6]; in [7]) was greater than 30 µM throughout.

Regarding `CNC(=O)C[C@@H](N)C(=O)N[C@@H](C(=O)N[C@@H]1C(=O)N2[C@@H]1SC(C)(C)[C@@H]2C(=O)O)c1ccc(O)cc1` [ASPOXICILLIN], the AC50 (at Acetylcholinesterase; in assay [1]; in assay [2]; in assay [3]; in assay [4]; at Thromboxane A2 receptor) was greater than 30 µM in each case. Besides, the concentration at half-maximal activity (AC50) (in assay [5]; at Progesterone receptor; in assay [6]; in assay [7]) was greater than 30 µM in each case.

`Cc1nnc(SCC2=C(C(=O)O)N3C(=O)[C@@H](NC(=O)Cn4cc(Cl)c(=O)c(Cl)c4)[C@H]3SC2)s1` [CEFAZEDONE]: the AC50 (at Acetylcholinesterase; in assay [1]; in [2]; in assay [3]; in [4]; at Thromboxane A2 receptor) was greater than 30 µM in each case. Moreover, the AC50 in assay [5] is greater than 30 µM; at Progesterone receptor, greater than 30 µM; in assay [6], 24.8 µM; in assay [7], greater than 30 µM.

As for `C[C@@H]1C[C@H]2[C@@H]3C[C@H](F)C4=CC(=O)C=C[C@]4(C)[C@@]3(Cl)[C@@H](O)C[C@]2(C)[C@H]1C(=O)COC(=O)C(C)(C)C` [CLOCORTOLONE PIVALATE], the AC50 at Acetylcholinesterase was greater than 30 µM; in [1], greater than 30 µM; in assay [2], greater than 30 µM; in [3] it was greater than 30 µM; in [4], greater than 10 µM; on Thromboxane A2 receptor it was greater than 30 µM. The AC50 in [5] is greater than 10 µM; at Progesterone receptor it was 0.0118 µM; in assay [6], greater than 30 µM; in [7], greater than 30 µM.

As to `O=P(O)(O)C(Cl)(Cl)P(=O)(O)O` [CLODRONIC ACID], the AC50 (on Acetylcholinesterase; in assay [1]; in [2]; in [3]; in assay [4]; on Thromboxane A2 receptor) was greater than 30 µM in each case. Moreover, the AC50 (in assay [5]; at Progesterone receptor; in [6]; in [7]) was greater than 30 µM each time.

In the case of `COCCCOc1ccnc(C[S+]([O-])c2nc3ccccc3[nH]2)c1C` (centres undefined) [RABEPRAZOLE], the AC50 was 16.7 µM on Acetylcholinesterase; 5.33 µM in assay [8]; greater than 30 µM in assay [2]; 17.9 µM in assay [3]; greater than 30 µM in [4]; greater than 30 µM at Thromboxane A2 receptor. Moreover, the AC50 in assay [5] was greater than 30 µM; at Progesterone receptor, greater than 30 µM; in [6], 25.4 µM; in assay [7], greater than 30 µM.

`CO[C@H]1/C=C/O[C@@]2(C)Oc3c(C)c(O)c4c(O)c(cc(O)c4c3C2=O)NC(=O)/C(C)=C\C=C\[C@H](C)[C@H](O)[C@@H](C)[C@@H](O)[C@@H](C)[C@H](OC(C)=O)[C@@H]1C` [RIFAMYCIN]: the AC50 (at Acetylcholinesterase; in assay [1]; in assay [8]; in assay [2]; in assay [3]; in assay [4]) was greater than 30 µM each time. The AC50 is greater than 30 µM in assay [5], greater than 30 µM at Progesterone receptor, 28.7 µM in assay [6] and greater than 30 µM in assay [7].

Regarding `O=C(Oc1ccccc1C(=O)O)c1ccccc1O` [SALSALATE], the AC50 (on Acetylcholinesterase; in [8]; in [2]; in [3]; in assay [4]; at Thromboxane A2 receptor) was greater than 30 µM in each case. The AC50 (in [5]; on Progesterone receptor; in [6]; in assay [7]) was greater than 30 µM throughout.

Regarding `CCOC(=O)[C@H](CCc1ccccc1)N[C@H]1CS[C@H](c2cccs2)CN(CC(=O)O)C1=O` [TEMOCAPRIL], the AC50 (on Acetylcholinesterase; in assay [1]; in [8]; in assay [2]; in [3]; in [4]) was greater than 30 µM each time. Further, the AC50 (at Thromboxane A2 receptor; in [5]; in assay [6]; in assay [7]) was greater than 30 µM throughout.

Regarding `c1ccc2[nH]c(-c3cscn3)nc2c1` [THIABENDAZOLE], the AC50 (at Acetylcholinesterase; in [8]; in [2]; in [3]; in assay [4]; at Thromboxane A2 receptor) was greater than 30 µM each time. The AC50 (in assay [5]; on Progesterone receptor; in [6]; in [7]) was greater than 30 µM in each case.

`C[C@@H]1C[C@H]2[C@@H]3CCC4=CC(=O)C=C[C@]4(C)C3=CC[C@]2(C)[C@H]1C(=O)CN1CCN(c2cc(N3CCCC3)nc(N3CCCC3)n2)CC1` [TIRILAZAD]: the AC50 on Acetylcholinesterase is greater than 30 µM; in [8], 1.9 µM; in assay [2], 17.3 µM; in assay [3] it was greater than 30 µM; in assay [4], 0.432 µM; at Thromboxane A2 receptor, greater than 30 µM. For the same compound, the AC50 was greater than 30 µM in assay [5], 6.37 µM at Progesterone receptor, 3.05 µM in assay [6] and greater than 30 µM in [7].

For the origin of these results see ChEMBL document CHEMBL5291721, “A preclinical secondary pharmacology resource illuminates target-adverse drug reaction associations of marketed drugs” (Nat Commun, 2023).
